In brackets after ≈: the same amount, converted by molar mass.
Settings: buffer; pH 7.4; 200.0 µM

SMILES | solubility kinetic [µg/mL]
COc1ccc(CCN2Cc3c(N)cccc3C2=O)cc1OC | > 46.9
COc1cccc2c(Cl)c(CCCl)c(C)nc12 | 1.1 (≈ 4.07 µM)
O=C(Nc1ccccc1)OCC1CCCO1 (stereo not drawn) | > 33.2
O=C(COc1ccccc1O)NCCN1CCOCC1 | > 42
CC(C)CC1C(C#N)=C(N)OC2=C1C(=O)CC(c1ccccc1)C2 (stereo not drawn) | 37.6 (≈ 117 µM)
CCN(C#N)c1nc(NC(C)C)nc(NC(C)(C)C)n1 | 37 (≈ 133 µM)
CCn1c(N)c(Br)c(=O)[nH]c1=O | > 35.1
CC(=O)N1CCN(C(=O)COC(=O)/C=C/c2ccc(C(F)(F)F)cc2)CC1 | > 57.7
C(/C=C/c1ccccn1)=C\c1ccccc1 | 0.7 (≈ 3.38 µM)
c1ccc(N2CCN(Cc3nc4ccccc4[nH]3)CC2)nc1 | 41.3 (≈ 141 µM)
O=C1OCC2=C1C(c1ccc(F)cc1)CC(=O)N2c1ccc(F)cc1 (stereo not drawn) | > 51.2
Cc1ccc(C)c(NC(=O)CSc2c(C)n[nH]c2C)c1 | > 43.4
CCN(CC)CCOC(=O)C(O)(c1ccccc1)c1ccccc1.Cl | > 54.6
Cc1nc(N)nc(SCc2ccc([N+](=O)[O-])cc2)c1N | 16.1 (≈ 55.3 µM)
Cc1nc2ccccn2c1C(=O)CSc1cccc(Cl)c1 | 3.9 (≈ 12.3 µM)
COc1ccc(N)cc1NC(=O)CN1CCCC1 | > 37.4
Cl.N=C(N)SCc1ccc(O)c([N+](=O)[O-])c1 | > 39.6
CCCC(C)NC(=O)c1sc2nc3n(c(=O)c2c1C)CCC3 (stereo not drawn) | > 47.9
Cc1nc2ccccc2c(=O)n1CCCN1CCOCC1 | > 43.1
Clc1ccc(-c2csc(-c3ccncc3)n2)cc1 | 0.3 (≈ 1.1 µM)
CCOC(=O)C1CCCN(S(=O)(=O)c2c(C)noc2C)C1 (stereo not drawn) | > 47.5

SMILES | solubility kinetic [µg/mL]
C(#Cc1ccccc1)CN1CCOCC1.Cl | > 35.7
CC(C)n1c(CN(C)c2ccccc2)nc2ccccc21.Cl | 42.4
Fc1ccccc1NC(=S)NC1CCCC1 | 35.2 (≈ 148 µM)
O=C(NC(=S)NC1C2CC3CC(C2)CC1C3)c1ccccc1 (stereo not drawn) | < 0.3
CCn1c(Oc2ccccc2)nc2c1c(=O)n(C)c(=O)n2C | 37.8 (≈ 126 µM)
Clc1cccc(Nc2nc(-c3ccncc3)nc3ccccc23)c1 | < 0.2
O=C(CSc1ccccc1F)NCCN1C(=O)CSC1=O | 48.1 (≈ 146 µM)
Nc1nccc(-c2ccc(-n3cnc4ccccc43)cc2)n1 | 2 (≈ 6.96 µM)
O=[N+]([O-])c1cccc(-c2noc(-c3ccco3)n2)c1 | 1.7 (≈ 6.61 µM)
O=C1N=c2ccccc2=C1c1sc(=S)n(-c2ccc(O)cc2)c1O | 0.8 (≈ 2.26 µM)
CC(C)CCN(C(=S)Nc1cccc(F)c1)C(C)c1cccs1 (stereo not drawn) | 3.2 (≈ 9.13 µM)
NC(=O)NCC(c1ccccc1)C1CCCCC1 (stereo not drawn) | 33.4 (≈ 136 µM)
Cc1cccc(C)c1NC(=O)CN1C(=O)C2CC=CCC2C1=O (stereo not drawn) | > 46.9
CC(C)(C)c1ccc(S(=O)(=O)N2CCN(CC(O)CN3CCOCC3)CC2)cc1 (stereo not drawn) | > 63.8
C(=C\c1ccccc1)/CNCC1CCCO1.Cl (stereo not drawn) | 38
COc1cc(C)nc(-c2csc(C)n2)n1 | 28.6 (≈ 129 µM)
O=C(COC(=O)c1ccccc1Cl)NC1CCCCCC1 | 29.5 (≈ 95.2 µM)
CC(C)(C)c1nc(N)nc(=O)[nH]1 | 23.9 (≈ 142 µM)
O=C(CN1c2cccc3cccc(c23)S1(=O)=O)NC1CCCCC1 | 5 (≈ 14.5 µM)
Cc1cc(NC(=O)C2CC(=O)N(c3cccc(Cl)c3)C2)no1 (stereo not drawn) | 16.3 (≈ 51 µM)
Cc1ccc2nc(C)c3c(c2c1)SCC3 | 11.3 (≈ 52.5 µM)

Second part, the molecule after the results:

solubility kinetic [µg/mL] | SMILES
1.1 (≈ 3.25 µM) | Cc1ccc(NC(=O)Nc2cc(S(C)(=O)=O)ccc2Cl)cc1
> 42.5 | O=C(O)C1CCCN(C(=O)c2cccc3ccccc23)C1 (stereo not drawn)
21 (≈ 87.4 µM) | CN(C)c1ccc(CCc2ccc(N)cc2)cc1
3.1 (≈ 10.2 µM) | CCCCCCCOc1ccc(C2CC(=O)N(C)C2=O)cc1 (stereo not drawn)
0.6 (≈ 2.24 µM) | O=C(Nc1ccccc1)Nc1csc2ccccc12
8.1 (≈ 21.8 µM) | O=C(COC(=O)CCC(=O)c1cccs1)Nc1ccc(F)c(F)c1F
> 50.8 | COCCCNC(=O)Cc1ccc(-n2c(C)nc3cccnc32)cc1
> 60.8 | CCOC(=O)Cc1csc(SCC(=O)N2CCN(c3ccccc3)CC2)n1
> 44.3 | O=C(CCc1ccccc1)NCC1OCCc2ccccc21 (stereo not drawn)
20.1 (≈ 87.3 µM) | Cc1cccc(C)c1OCCCn1ccnc1
3.1 (≈ 10.8 µM) | Cc1cc(C(=O)Nc2nccs2)c2cc(F)ccc2n1
> 48.4 | O=C(Nc1nncs1)c1cc(-c2ccco2)nc2ccccc12
> 47 | N#CCCN=C(NS(=O)(=O)c1ccccc1)c1ccccc1
> 46.6 | O=C(COC(=O)Cc1ccsc1)Nc1ccc(Cl)cn1
> 44 | Cc1cc(NC(=O)CSc2ncccc2C(=O)O)no1
13.1 (≈ 37.8 µM) | Cc1ccc(NC(=O)CCCNC(=O)c2ccc(Cl)cc2)c(O)c1
9.2 (≈ 22.6 µM) | O=S(=O)(Nc1cccc(CCc2ccccn2)c1)c1cc(Cl)ccc1Cl
6.1 (≈ 20.7 µM) | Cc1nc([N+](=O)[O-])cn1CC(=O)Nc1ccc(Cl)cc1
> 49.2 | CC(=O)NCCc1nc2ccccc2n1Cc1ccc(Cl)cc1
45.7 (≈ 136 µM) | CCCCOC(=O)c1ccc(NC(=O)C(=O)NCCN(C)C)cc1
> 38.1 | O=C1C2C3C=CC(C3)C2C(=O)N1Nc1ccccc1 (stereo not drawn)
33.9 (≈ 111 µM) | CCc1nc2ccccc2c(C(=O)NCc2ccccc2)c1C
3.1 (≈ 11 µM) | CC(=O)Oc1ccc2c(=O)oc(-c3ccccc3)nc2c1

solubility kinetic [µg/mL] | SMILES
> 55.4 | O=C(CSc1nc2ccccc2c(=O)n1-c1ccccc1F)NC1CC1
< 0.6 | CC(C)(C)c1ccc(OCc2cnc(Cl)s2)cc1
> 50.5 | Cc1ccc(CN(C)C(=O)CCNS(=O)(=O)c2ccccc2)o1
10.7 (≈ 42.8 µM) | Cc1occc1C(=O)Nc1sccc1C(N)=O
12.5 (≈ 44.4 µM) | O=C(/C=C/c1ccc(F)cc1)N1CCc2ccccc2C1
7.1 (≈ 20.1 µM) | O=C(NCc1nc(-c2ccc(C(F)(F)F)cc2)no1)c1cccs1
> 51.8 | O=C(NCC(c1ccco1)N1CCOCC1)c1ccc([N+](=O)[O-])cc1 (stereo not drawn)
44.3 (≈ 147 µM) | COc1ccc(C)cc1Nc1ccc(C(=O)O)cc1[N+](=O)[O-]
> 48.4 | CCCN1CCC(NC(=S)Nc2ccc([N+](=O)[O-])cc2)CC1
> 42.2 | CC1(C(=O)Nc2ccccc2)Cc2ccccc2C(=O)O1 (stereo not drawn)
> 41.7 | O=C(CNC(=O)c1cccs1)NCCc1ccco1
48.1 (≈ 143 µM) | CCOc1ccccc1N(C)C(=O)c1cn(C)c(=O)c2ccccc12
< 0.7 | COc1ccc(C(=O)c2oc3ccc(OC)cc3c2NC(C)=O)cc1
3.3 (≈ 10.7 µM) | COc1ccc2nc(C)cc(Nc3cccc(C(=O)O)c3)c2c1
11.4 (≈ 41.7 µM) | Cc1cccc2cc(C#N)c(NCc3ccccc3)nc12
3.2 (≈ 9.66 µM) | O=C(Cc1ccccc1)Nc1ccc(NC(=O)c2cccnc2)cc1
50 (≈ 123 µM) | CCOc1ccc(NC(=O)C(CC(=O)O)Cc2ccc(Br)cc2)cc1 (stereo not drawn)
2.3 (≈ 6.55 µM) | Cc1cc(CNC(=O)COc2ccc([N+](=O)[O-])cc2)c2ccccc2n1
> 44.3 | O=C(Cc1csc(NC(=O)c2ccc(F)cc2)n1)NO
1.3 (≈ 4.15 µM) | COC(=O)c1ccc(NC(=O)c2ccc3nsnc3c2)cc1
6.9 (≈ 28.6 µM) | O=C(Nc1ccccc1)C(=O)Nc1cccnc1
2.7 (≈ 9.24 µM) | COC(=O)c1c(C)nsc1NC(=O)Oc1ccccc1
> 34.4 | O=C(O)c1cc2nccc(-c3ccco3)n2n1
